This is an account of results in patent publication US20050070555A1, “Aroyl pyridinones” (Bayer HealthCare AG, priority 2001, published 2005).

Sequence of p38 map kinase (Q16539 whole entry): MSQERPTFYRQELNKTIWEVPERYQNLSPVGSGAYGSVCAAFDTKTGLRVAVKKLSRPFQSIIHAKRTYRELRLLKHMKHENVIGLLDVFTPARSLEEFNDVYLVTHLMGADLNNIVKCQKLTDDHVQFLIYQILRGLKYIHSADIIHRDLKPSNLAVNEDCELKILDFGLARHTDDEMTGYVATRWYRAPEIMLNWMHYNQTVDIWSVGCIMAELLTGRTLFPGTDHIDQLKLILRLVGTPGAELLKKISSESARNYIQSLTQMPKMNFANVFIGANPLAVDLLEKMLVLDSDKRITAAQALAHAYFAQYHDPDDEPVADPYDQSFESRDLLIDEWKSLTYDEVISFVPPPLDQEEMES

The target in the assay is p38 map kinase (Homo sapiens, UniProt Q16539). The experiment in a line: P 38 Map Kinase Assay (SPA [33-P] serine/threonine kinase assay). The format is biochemical. As to conditions: 10 μM ATP, 2.5 μM biotinylated myelin basic protein substrate, 500 ng/well enzyme, 90 min, 30° C. From the text:
The assay makes use of the serine/theonine protein kinase SPA [33-P]+assay kit from Amersham Phamacia Biotech. The assay is a homogeneous technique using SPA technology for the quantification of serine threonine kinase activity.
It is based on the p38 map kinase catalysed transfer of the γ-phosphate group of the [γ-^33P] […] to the substrate, biotinylated myelin basic protein (MBP). The resulting [^33P]-labelled biotinylated product is trapped on a PVT SPA bead containing scintillant which has been surface coated with streptavidin.
The beads are allowed to settle to eliminate high background, and therefore only ^33P labelled product attached to the SPA bead is detected.
The assay is carried out in the presence and absence of test compounds to determine their effect on p38 map kinase activity.
A test protocol is as follows:
• 1. SPA assay kit (Amersham). Components: • Assay buffer (store frozen) • Stop solution (store frozen). • Streptavidin coated SPA beads—reconstitute with 5 mls of PBS. (50 mg/ml). (Store in fridge) • 2. p 38 map kinase enzyme SCRD (500 μg/ml)—aliquoted in 1.5 mls. • dilute 1:10 to 50 μg/ml • 1 plate—110 μl (stock 500 μg/ml)+990 μl PBS. • 3. Assay reagent: • for 1 plate: 504 μl Assay buffer (500 Mm MOPS pH 7.2, 10 μM ATP, 50 mM MgCl2, 25 μM biotinylated myelin basic protein (MBP)). • 2513.4 μl Water • 1.1 μl 33-p-ATP (10 μCi/ul) (on activity date/adjust for activity date) • 4.534 μl×10^-2M ATP in water • 4. Stop solution: • for 1 plate: 265.92 μl streptavidin coated beads (50 mg/ml) • 1651.684 μl stop buffer (500 μM ATP, 50 mM EDTA 1% Triton X-100) • 7084.32 μl PBS. • 1. Add 10 μl compound Dilutons (5× final conc) Test wells. • 2. Add 10 μl 12.5% DMSO to control/blank wells. • 3. Add 10 μl enzyme (50 μg/ml) final conc 500 ng/well • 4. Add 10 μl PBS to blank wells. • 5. Add 30 μl of assay reagent to each well. (final conc 10 μM ATP, 2.5 μM substrate) • 6. Mix well on plate shaker. • 7. Incubate 90 min (30° C.) • 8. Add 75 μl of stop solution to each well (final conc 55 μM ATP) • 9. Spin plate: −3 min/1600 rpm/20° C. (alternatively leave to settle overnight) • 10. Read in Microbeta, Protocol SPA paralux 3.
The term IC50 denotes the concentration at which inhibition is half-maximal. On to `O=C(c1ccc(F)cc1F)c1ccc(=O)n2c1N[C@@H]1CCCC[C@@H]12` (racemic) [Example 1, (Rac-cis-5a,9a)-4-(2,4-difluorobenzoyl)-5a,6,7,8,9,9a-hexahydropyrido[1,2-a]benzimidazol-1(5H)-one], for which the concentration for half-maximal inhibition (IC50) came out at 340 nM. Next, `O=C(c1ccccc1)c1ccc(=O)n2c1N[C@@H]1CCCC[C@@H]12` (racemic) [Example 3, (Rac-cis-5a,9a)-4-benzoyl-5a,6,7,8,9,9a-hexahydropyrido[1,2-a]benzimidazol-1(5H)-one]: 455 nM; `O=C(c1cccc(Cl)c1)c1ccc(=O)n2c1N[C@@H]1CCCC[C@@H]12` (racemic) [Example 9, (Rac-cis-5a,9a)-4-(3-chlorobenzoyl)-5a,6,7,8,9,9a-hexahydropyrido[1,2-a]benzimidazol-1(5H)-one]: 228 nM; `O=C(c1ccc(F)cc1F)c1ccc(=O)n2c1N[C@H]1CCCC[C@@H]12` [Example 2-1, (5aS,9aS)-4-(2,4-difluorobenzoyl)-5a,6,7,8,9,9a-hexahydropyrido[1,2-a]benzimidazol-1(5H)-one]: 164 nM. Next, `CC1(C)Cn2c(c(C(=O)c3ccc(Cl)cc3)ccc2=O)N1` [Example 21]: 1800 nM. Next, `CC1(C)CNc2c(C(=O)c3ccc(F)cc3)ccc(=O)n2C1` [Example 24, 9-(4-Fluorobenzoyl)-3,3-dimethyl-1,2,3,4-tetrahydro-6H-pyrido[1,2-a]pyrimidin-6-one]: 386 nM.
